According to patent publication US7267983B2 (priority 2000, dated 2007):
“And” between values parts separate entries of the source, which are not always exact repeats. Equal values may be shown once.

Tested on: β-toxin production by Clostridium perfringens
Format: cell-based
Design: mean total toxin production: unit not given here

| Substance | toxin per cell | toxin production | mean total toxin production | total toxin ratio (total toxin with test peptide divided by base media total toxin) | beta toxin accumulation in the culture supernatant | total toxin mean value | amount of toxin produced per cell | total toxin in the two-point ELISA over optimized base medium alone | total toxin produced by the culture |
| --- | --- | --- | --- | --- | --- | --- | --- | --- | --- |
| FMSTA: pentapeptide | increased toxin per cell above the mean |  |  |  |  |  |  |  |  |
| GYPEV: pentapeptide | increased toxin per cell above the mean |  |  |  |  |  |  |  |  |
| VHVYQ: pentapeptide |  | toxin production above the mean obtained in 0.5% hydrolysate media |  |  |  |  |  |  |  |
| FDIST: pentapeptide |  |  | 8.395 |  |  |  |  |  |  |
| NLTEL: pentapeptide |  |  | 8.321 |  |  |  |  |  |  |
| SNGIY: pentapeptide | increased toxin per cell above the mean |  |  |  |  |  |  |  |  |
| SVMEM: pentapeptide | increased toxin per cell above the mean |  |  |  |  |  |  |  |  |
| IKLAS: pentapeptide |  |  | 7.7475 |  |  |  |  |  |  |
| MHAPP: pentapeptide | increased toxin per cell above the mean |  |  |  |  |  |  |  |  |
| ETVNF: pentapeptide | increased toxin per cell above the mean |  |  |  |  |  |  |  |  |
| ETLNL: pentapeptide |  |  | 8.28 |  |  |  |  |  |  |
| FSFVE: pentapeptide |  |  | 8.727 |  |  |  |  |  |  |
| NQLEV: pentapeptide |  |  | 7.81 |  |  |  |  |  |  |
| MMELE: pentapeptide | increased toxin per cell above the mean |  |  |  |  |  |  |  |  |
| NEYLY: pentapeptide |  |  | 8.665 |  |  |  |  |  |  |
| NEGLG: pentapeptide | increased toxin per cell above the mean |  |  |  |  |  |  |  |  |
| NNNNN: pentapeptide |  | toxin production above the mean obtained in 0.5% hydrolysate media |  |  |  |  |  |  |  |
| PELME: pentapeptide | increased toxin per cell above the mean |  |  |  |  |  |  |  |  |
| LADTF: pentapeptide | increased toxin per cell above the mean |  |  |  |  |  |  |  |  |
| MPNNF: pentapeptide | increased toxin per cell above the mean |  |  |  |  |  |  |  |  |
| DKAL: tetrapeptide |  |  |  | increased the total toxin ratio |  |  |  |  |  |
| PLFEQ: pentapeptide | increased toxin per cell above the mean |  |  |  |  |  |  |  |  |
| LSAL: tetrapeptide |  | significantly inhibited toxin production |  |  |  |  |  |  |  |
| YENLY: pentapeptide | increased toxin per cell above the mean |  |  |  |  |  |  |  |  |
| DTHHI: pentapeptide | increased toxin per cell above the mean |  |  |  |  |  |  |  |  |
| ALFHE: pentapeptide | increased toxin per cell above the mean |  |  |  |  |  |  |  |  |
| KPLDV: pentapeptide | increased toxin per cell above the mean |  |  |  |  |  |  |  |  |
| FEFGV: pentapeptide | increased toxin per cell above the mean |  |  |  |  |  |  |  |  |

| Substance | toxin per cell | toxin production | mean total toxin production | total toxin ratio (total toxin with test peptide divided by base media total toxin) | beta toxin accumulation in the culture supernatant | total toxin mean value | amount of toxin produced per cell | total toxin in the two-point ELISA over optimized base medium alone | total toxin produced by the culture |
| --- | --- | --- | --- | --- | --- | --- | --- | --- | --- |
| QNDVY: pentapeptide | increased toxin per cell above the mean |  |  |  | enhance beta toxin accumulation |  |  |  |  |
| YEQQN: pentapeptide | increased toxin per cell above the mean |  |  |  |  |  |  |  |  |
| LPDLF: pentapeptide | increased toxin per cell above the mean |  |  |  |  |  |  |  |  |
| FVPEK: pentapeptide | increased toxin per cell above the mean |  |  |  |  |  |  |  |  |
| SQLEL: pentapeptide |  |  | 8.284 |  |  |  |  |  |  |
| YEYIG: pentapeptide |  |  |  |  |  | greater than twice that obtained using 3.5% hydrolysate alone |  |  |  |
| VDLLG: pentapeptide | increased toxin per cell above the mean |  |  |  |  |  |  |  |  |
| FSLLE: pentapeptide |  |  | 8.855 |  |  |  |  |  |  |
| GGMPG: pentapeptide | increased toxin per cell above the mean |  |  |  |  |  |  |  |  |
| HAPAY: pentapeptide | increased toxin per cell above the mean |  |  |  |  |  |  |  |  |
| GDYVS: pentapeptide | increased toxin per cell above the mean |  |  |  |  |  |  |  |  |
| EKALE: pentapeptide | increased toxin per cell above the mean |  |  |  |  |  |  |  |  |
| FEFVG: pentapeptide |  |  | 8.79 and 8.787 |  |  |  | doubled | about 2.2 × | near doubling |
| LSFIE: pentapeptide | increased toxin per cell above the mean |  |  |  |  |  |  |  |  |
| YEYIY: pentapeptide | increased toxin per cell above the mean |  |  |  |  |  |  |  |  |
| KTVGI: pentapeptide | increased toxin per cell above the mean |  |  |  |  |  |  |  |  |
| DKTNG: pentapeptide | increased toxin per cell above the mean |  |  |  |  |  |  |  |  |
| HTVEL: pentapeptide | increased toxin per cell above the mean |  |  |  | enhance beta toxin accumulation |  |  |  |  |
| ESLQM: pentapeptide | increased toxin per cell above the mean |  |  |  |  |  |  |  |  |
| KFIFE: pentapeptide | increased toxin per cell above the mean |  |  |  |  |  |  |  |  |
| TKPFF: pentapeptide | increased toxin per cell above the mean |  |  |  |  |  |  |  |  |
| VNVQA: pentapeptide | increased toxin per cell above the mean |  |  |  |  |  |  |  |  |
| VEFTN: pentapeptide | increased toxin per cell above the mean |  |  |  |  |  |  |  |  |
| SYIME: pentapeptide | increased toxin per cell above the mean |  |  |  |  |  |  |  |  |
| ELSPH: pentapeptide | increased toxin per cell above the mean |  |  |  |  |  |  |  |  |
| DMLQT: pentapeptide | increased toxin per cell above the mean |  |  |  |  |  |  |  |  |
| KFIEK: pentapeptide | increased toxin per cell above the mean |  |  |  |  |  |  |  |  |
